Test results published in patent US12655116B2, “Substituted isophthalic acid diamides” (Bayer Aktiengesellschaft, priority 2020, dated 2026).

Legend:
SETVI [1] = assay: Pre-emergence herbicidal action against SETVI; type: in vivo, Setaria viridis
Summary of the method: (§1)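 Seeds sown in sandy loam, soil-covered; compound sprayed on soil surface pre-emergence. Application: WP/EC, 600–800 l/ha, 0.2% wetting agent. Readout: visual % damage at 3 weeks.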

PHBPU [2] = assay: Post-emergence herbicidal action against PHBPU; type: in vivo, Pharbitis purpurea; settings: dosage 20 g/ha
Summary of the method: (§2)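 Percent herbicidal action is rated by eye about 3 weeks after treatment against untreated controls, where 100% means dead plants and 0% means like controls. Plants in sandy loam are sprayed on green parts at the one-leaf stage with aqueous WP or EC preparations at 600 to 800 l/ha plus 0.2% wetting agent.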

DIGSA [3] = assay: Pre-emergence herbicidal action against DIGSA; type: in vivo, Digitaria sanguinalis
Summary of the method: as §1

ECHCG [4] = assay: Pre-emergence herbicidal action against ECHCG; type: in vivo, Echinochloa crus-galli; settings: 80 g/ha
Summary of the method: as §1

ALOMY [5] = assay: Pre-emergence herbicidal action against ALOMY; type: in vivo, Alopecurus myosuroides; settings: 80 g/ha, pre-emergence, scored visually after 3 weeks vs untreated controls (100% = plants have died, 0% = like control plants)
Summary of the method: as §1

AVEFA [6] = assay: Pre-emergence herbicidal action against AVEFA; type: in vivo, Avena fatua; settings: pre-emergence
Summary of the method: as §1

ABUTH [7] = assay: Pre-emergence herbicidal action against ABUTH; type: in vivo, Abutilon theophrasti
Summary of the method: as §1

VIOTR [8] = assay: Pre-emergence herbicidal action against VIOTR; type: in vivo, Viola tricolor
Summary of the method: as §1

MATIN [9] = assay: Post-emergence herbicidal action against MATIN; type: in vivo, Matricaria inodora; settings: dosage 20 g/ha
Summary of the method: as §2

ECHCG [10] = assay: Post-emergence herbicidal action against ECHCG; type: in vivo, Echinochloa crus-galli
Summary of the method: as §2

AVEFA [11] = assay: Post-emergence herbicidal action against AVEFA; type: in vivo, Avena fatua; settings: visual assessment about 3 weeks after treatment, 100% = plants have died, 0% = like control plants
Summary of the method: as §2

MATIN [12] = assay: Pre-emergence herbicidal action against MATIN; type: in vivo, Matricaria inodora
Summary of the method: as §1

ABUTH [13] = assay: Post-emergence herbicidal action against ABUTH; type: in vivo, Abutilon theophrasti; settings: visual assessment about 3 weeks after treatment vs untreated controls
Summary of the method: as §2

AMARE [14] = assay: Pre-emergence herbicidal action against AMARE; type: in vivo, Amaranthus retroflexus
Summary of the method: as §1

POLCO [15] = assay: Post-emergence herbicidal action against POLCO; type: in vivo, Polygonum convolvulus; settings: dosage 20 g/ha
Summary of the method: as §2

SETVI [16] = assay: Post-emergence herbicidal action against SETVI; type: in vivo, Setaria viridis
Summary of the method: as §2

VIOTR [17] = assay: Post-emergence herbicidal action against VIOTR; type: in vivo, Viola tricolor; settings: Viola tricolor, 504 h
Summary of the method: as §2

AMARE [18] = assay: Post-emergence herbicidal action against AMARE; type: in vivo, Amaranthus retroflexus; settings: Amaranthus retroflexus, 504 h, 20 g/ha, visual assessment about 3 weeks after treatment, 100% = plants have died, 0% = like control plants
Summary of the method: as §2

VERPE [19] = assay: Post-emergence herbicidal action against VERPE; type: in vivo, Veronica persica; settings: Veronica persica, 504 h, 20 g/ha
Summary of the method: as §2

PHBPU [20] = assay: Pre-emergence herbicidal action against PHBPU; type: in vivo, Pharbitis purpurea; settings: Ipomoea purpurea, 504 h, dosage 80 g/ha
Summary of the method: as §1

DIGSA [21] = assay: Post-emergence herbicidal action against DIGSA; type: in vivo, Digitaria sanguinalis; settings: Digitaria sanguinalis, 504 h
Summary of the method: as §2

VERPE [22] = assay: Pre-emergence herbicidal action against VERPE; type: in vivo, Veronica persica; settings: Veronica persica, 504 h, dosage 80 g/ha
Summary of the method: as §1

POLCO [23] = assay: Pre-emergence herbicidal action against POLCO; type: in vivo, Polygonum convolvulus; settings: Fallopia convolvulus, 504 h, dosage 80 g/ha
Summary of the method: as §1

ALOMY [24] = assay: Post-emergence herbicidal action against ALOMY; type: in vivo, Alopecurus myosuroides; settings: Alopecurus myosuroides, 504 h, dosage 20 g/ha, visual assessment about 3 weeks after treatment vs untreated controls
Summary of the method: as §2

[25] = 80 g/ha, scored visually after 3 weeks vs untreated controls (100% = plants have died, 0% = like control plants)
[26] = Setaria viridis, 504 h, dosage 20 g/ha

Structure (SMILES): Cc1c(C(=O)Nc2nnnn2C)ccc(C(F)(F)F)c1C(=O)NCC1CC1 [Example 1-28]
- Pre-emergence action against SETVI in % (SETVI [1]; dosage 80 g/ha): 100%
- Post-emergence action against PHBPU in % (PHBPU [2]): 90%
- Pre-emergence action against DIGSA in % (DIGSA [3]; dosage 20 g/ha): 100%
- Pre-emergence action against DIGSA in % (DIGSA [3]; dosage 80 g/ha): 100%
- Pre-emergence action against ECHCG in % (ECHCG [4]): 100%
- Pre-emergence action against ALOMY (herbicidal activity) (ALOMY [5]): 90%
- Pre-emergence action against AVEFA in % (AVEFA [6]; 80 g/ha): 100%
- Pre-emergence action against ABUTH (herbicidal activity) (ABUTH [7]; [25]): 100%
- Pre-emergence action against ABUTH (herbicidal activity in percent) (ABUTH [7]; dosage 20 g/ha, scored visually after 3 weeks vs untreated controls, 100% = plants have died, 0% = like control plants): 90%
- Pre-emergence action against VIOTR in % (VIOTR [8]; dosage 20 g/ha): 100%
- Pre-emergence action against VIOTR in % (VIOTR [8]; dosage 80 g/ha): 100%
- Post-emergence action against MATIN in % (MATIN [9]): 80%
- Post-emergence action against ECHCG in % (ECHCG [10]; dosage 5 g/ha): 80%
- Post-emergence action against ECHCG in % (ECHCG [10]; dosage 20 g/ha): 90%
- Post-emergence action at 5 g/ha against AVEFA in % (AVEFA [11]; 5 g/ha): 80%
- Post-emergence action at 20 g/ha against AVEFA in % (AVEFA [11]; 20 g/ha): 80%
- Pre-emergence action against MATIN in % (MATIN [12]; dosage 20 g/ha): 100%
- Pre-emergence action against MATIN in % (MATIN [12]; dosage 80 g/ha): 100%
- Post-emergence action against ABUTH in % (ABUTH [13]; dosage 5 g/ha): 80%
- Post-emergence action against ABUTH in % (ABUTH [13]; dosage 20 g/ha): 80%
- Pre-emergence action against AMARE in % (AMARE [14]; 20 g/ha, scored visually after 3 weeks vs untreated controls, 100% = plants have died, 0% = like control plants): 100%
- Pre-emergence action against AMARE in % (AMARE [14]; [25]): 100%
- Post-emergence action against POLCO in % (POLCO [15]): 80%
- Post-emergence action against SETVI in % (SETVI [16]; dosage 5 g/ha): 80%
- Post-emergence action against SETVI in % (SETVI [16]; dosage 20 g/ha): 80%

Structure (SMILES): CNC(=O)c1c(C(F)(F)F)ccc(C(=O)Nc2nnnn2C)c1Br [Example 1-207]
- pest or weed control at 20 g/ha (SETVI [1]; [26]): 100%
- pest or weed control at 80 g/ha (SETVI [1]; Setaria viridis, 504 h, dosage 80 g/ha): 100%
- pest or weed control at 20 g/ha (PHBPU [2]; Ipomoea purpurea, 504 h): 80%
- pest or weed control at 5 g/ha (VIOTR [17]; 5 g/ha): 100%
- pest or weed control at 20 g/ha (VIOTR [17]; 20 g/ha): 100%
- pest or weed control at 20 g/ha (DIGSA [3]; Digitaria sanguinalis, 504 h, dosage 20 g/ha): 100%
- pest or weed control at 80 g/ha (DIGSA [3]; Digitaria sanguinalis, 504 h, dosage 80 g/ha): 100%
- pest or weed control at 20 g/ha (AMARE [18]): 100%
- pest or weed control at 20 g/ha (VERPE [19]): 90%
- pest or weed control at 80 g/ha (ECHCG [4]; Echinochloa crus-galli, 504 h): 90%
- pest or weed control at 80 g/ha (ALOMY [5]; Alopecurus myosuroides, 504 h): 100%
- pest or weed control at 80 g/ha (AVEFA [6]; Avena fatua, 504 h, 80 g/ha): 90%
- pest or weed control at 20 g/ha (AVEFA [6]; Avena fatua, 504 h, 20 g/ha, scored visually after 3 weeks, 100% = plants have died, 0% = like control plants): 80%
- pest or weed control at 80 g/ha (ABUTH [7]; Abutilon theophrasti, 504 h, 80 g/ha, scored visually after 3 weeks vs untreated controls (100% = plants have died, 0% = like control plants)): 100%
- pest or weed control at 20 g/ha (ABUTH [7]; Abutilon theophrasti, 504 h, dosage 20 g/ha, scored visually after 3 weeks vs untreated controls, 100% = plants have died, 0% = like control plants, read-out: Pre-emergence action against ABUTH (herbicidal activity in percent)): 100%
- pest or weed control at 20 g/ha (VIOTR [8]; Viola tricolor, 504 h, dosage 20 g/ha): 100%
- pest or weed control at 80 g/ha (VIOTR [8]; Viola tricolor, 504 h, dosage 80 g/ha): 100%
- pest or weed control at 20 g/ha (MATIN [9]; Tripleurospermum inodorum, 504 h): 90%
- pest or weed control at 20 g/ha (ECHCG [10]; Echinochloa crus-galli, 504 h, dosage 20 g/ha): 80%
- pest or weed control at 20 g/ha (MATIN [12]; Tripleurospermum inodorum, 504 h, dosage 20 g/ha): 90%
- pest or weed control at 80 g/ha (MATIN [12]; Tripleurospermum inodorum, 504 h, dosage 80 g/ha): 100%
- pest or weed control at 5 g/ha (ABUTH [13]; Abutilon theophrasti, 504 h, dosage 5 g/ha): 80%
- pest or weed control at 20 g/ha (ABUTH [13]; Abutilon theophrasti, 504 h, dosage 20 g/ha): 90%
- pest or weed control at 80 g/ha (PHBPU [20]): 80%
- pest or weed control at 5 g/ha (DIGSA [21]; 5 g/ha): 90%
- pest or weed control at 20 g/ha (DIGSA [21]; 20 g/ha): 100%
- pest or weed control at 80 g/ha (VERPE [22]): 100%
- pest or weed control at 20 g/ha (AMARE [14]; Amaranthus retroflexus, 504 h, 20 g/ha, scored visually after 3 weeks vs untreated controls, 100% = plants have died, 0% = like control plants): 100%
- pest or weed control at 80 g/ha (AMARE [14]; Amaranthus retroflexus, 504 h, 80 g/ha, scored visually after 3 weeks vs untreated controls, 100% = plants have died, 0% = like control plants): 100%
- pest or weed control at 20 g/ha (POLCO [15]; Fallopia convolvulus, 504 h): 100%
- pest or weed control at 80 g/ha (POLCO [23]): 90%
- pest or weed control at 5 g/ha (SETVI [16]; Setaria viridis, 504 h, dosage 5 g/ha): 100%
- pest or weed control at 20 g/ha (SETVI [16]; [26]): 100%
- pest or weed control at 20 g/ha (ALOMY [24]): 90%
